Assay results taken from publication PMC7865522, “Analyzing Kinase Similarity in Small Molecule and Protein Structural Space to Explore the Limits of Multi-Target Screening” (Molecules, 2021).

What was measured:
ErbB2 [1] = molecular target: T1, ErbB2 (Homo sapiens, UniProt P04626); test: Eurofins in vitro kinase inhibition assay; format: biochemical; conditions: compound 20 µM; mean (SD); above 50% significant, 25-50% weak
T1 construct: purchased DiscoverX (KINOMEscan service); host or cells: E. coli BL21-derived host (T7 phage) or HEK-293
Experimental: (§1) Kinase inhibition assays for EGFR, ErbB2, PI3K and BRAF were carried out by Eurofins Cerep following the protocols of Weber et al. (EGFR), Quian et al. (ErbB2), Sinnamon et al. (PI3K) and Kupcho et al. (BRAF). Briefly, except for PI3K, compounds were incubated with the respective kinase, ATP, and a substrate analog, and the effect of each compound on phosphorylation was measured. In the case of PI3K, the displacement of biotinylated PIP3 from a PIP3-binding complex by unlabelled PIP3 (produced from PIP2 by PI3K) was measured by Homogeneous Time Resolved Fluorescence (HTRF).
(§2) Finally, inhibition of the respective kinases is calculated as the percentage inhibition of control activity.
(§3) Table S3. Experimental results from the Euroﬁns assay. Inhibition of four kinases (EGFR, PI3K, ErbB2, BRAF) was measured at compound concentrations of 20 µM. Inhibition was calculated as % inhibition of control activity. According to CRO, values above 50% inhibition represent signiﬁcant inhibition, values above 25% weak inhibition effect and values below 25% as well as negative values are usually not signiﬁcant. Results are reported in mean (SD) format. […]
(§4) a Compound interfered with assay readout.

BRAF [2] = molecular target: T2, BRAF (Homo sapiens, UniProt P15056); test: Eurofins in vitro kinase inhibition assay; format: biochemical; conditions: compound 20 µM; mean (SD); above 50% significant, 25-50% weak
T2 construct: purchased DiscoverX (KINOMEscan service); host or cells: E. coli BL21-derived host (T7 phage) or HEK-293
Experimental: as §1, §2, §3, §4

EGFR [3] = molecular target: T3, EGFR (Homo sapiens, UniProt P00533); test: Eurofins in vitro kinase inhibition assay; format: biochemical; conditions: compound 20 µM; mean (SD); above 50% significant, 25-50% weak
T3 construct: purchased DiscoverX (KINOMEscan service); host or cells: E. coli BL21-derived host (T7 phage) or HEK-293
Experimental: as §1, §2, §3, §4

PI3K [4] = molecular target: T4, PI3K (Homo sapiens, UniProt P42336); test: Eurofins in vitro kinase inhibition assay (HTRF, PIP3 displacement); format: biochemical; design: purchased Eurofins Cerep (contract assay); conditions: compound 20 µM; mean (SD); above 50% significant, 25-50% weak
Experimental: as §1, §2, §3, §4
Target sequence in this assay (P42336 whole entry): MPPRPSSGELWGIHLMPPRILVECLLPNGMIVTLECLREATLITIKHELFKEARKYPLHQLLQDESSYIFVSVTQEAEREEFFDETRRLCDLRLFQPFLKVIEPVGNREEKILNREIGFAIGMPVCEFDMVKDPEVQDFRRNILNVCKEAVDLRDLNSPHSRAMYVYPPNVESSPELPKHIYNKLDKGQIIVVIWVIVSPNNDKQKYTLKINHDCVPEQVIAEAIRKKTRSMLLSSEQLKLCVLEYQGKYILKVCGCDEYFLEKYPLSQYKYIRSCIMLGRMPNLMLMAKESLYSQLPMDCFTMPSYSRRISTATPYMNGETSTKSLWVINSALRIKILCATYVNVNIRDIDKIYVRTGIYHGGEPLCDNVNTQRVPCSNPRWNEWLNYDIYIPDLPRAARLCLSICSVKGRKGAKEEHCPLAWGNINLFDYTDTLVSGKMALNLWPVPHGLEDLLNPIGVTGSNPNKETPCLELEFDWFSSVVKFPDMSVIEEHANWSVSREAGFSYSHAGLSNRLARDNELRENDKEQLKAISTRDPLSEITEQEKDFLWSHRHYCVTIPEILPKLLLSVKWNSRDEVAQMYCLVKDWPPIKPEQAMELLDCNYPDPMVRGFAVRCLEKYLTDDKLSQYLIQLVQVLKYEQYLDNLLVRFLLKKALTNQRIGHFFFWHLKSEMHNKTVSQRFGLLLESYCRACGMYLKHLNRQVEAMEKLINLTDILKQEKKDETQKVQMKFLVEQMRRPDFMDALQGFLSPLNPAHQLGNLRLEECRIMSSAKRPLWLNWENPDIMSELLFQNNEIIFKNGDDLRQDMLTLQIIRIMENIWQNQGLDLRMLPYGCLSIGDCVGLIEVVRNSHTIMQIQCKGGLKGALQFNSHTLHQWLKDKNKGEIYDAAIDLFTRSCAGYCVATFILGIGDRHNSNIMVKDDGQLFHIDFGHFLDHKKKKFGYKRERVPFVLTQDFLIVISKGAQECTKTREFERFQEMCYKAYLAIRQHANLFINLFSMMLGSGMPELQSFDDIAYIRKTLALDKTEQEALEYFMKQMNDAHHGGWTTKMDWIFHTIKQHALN
Target sequence in this assay (P27986 whole entry partner): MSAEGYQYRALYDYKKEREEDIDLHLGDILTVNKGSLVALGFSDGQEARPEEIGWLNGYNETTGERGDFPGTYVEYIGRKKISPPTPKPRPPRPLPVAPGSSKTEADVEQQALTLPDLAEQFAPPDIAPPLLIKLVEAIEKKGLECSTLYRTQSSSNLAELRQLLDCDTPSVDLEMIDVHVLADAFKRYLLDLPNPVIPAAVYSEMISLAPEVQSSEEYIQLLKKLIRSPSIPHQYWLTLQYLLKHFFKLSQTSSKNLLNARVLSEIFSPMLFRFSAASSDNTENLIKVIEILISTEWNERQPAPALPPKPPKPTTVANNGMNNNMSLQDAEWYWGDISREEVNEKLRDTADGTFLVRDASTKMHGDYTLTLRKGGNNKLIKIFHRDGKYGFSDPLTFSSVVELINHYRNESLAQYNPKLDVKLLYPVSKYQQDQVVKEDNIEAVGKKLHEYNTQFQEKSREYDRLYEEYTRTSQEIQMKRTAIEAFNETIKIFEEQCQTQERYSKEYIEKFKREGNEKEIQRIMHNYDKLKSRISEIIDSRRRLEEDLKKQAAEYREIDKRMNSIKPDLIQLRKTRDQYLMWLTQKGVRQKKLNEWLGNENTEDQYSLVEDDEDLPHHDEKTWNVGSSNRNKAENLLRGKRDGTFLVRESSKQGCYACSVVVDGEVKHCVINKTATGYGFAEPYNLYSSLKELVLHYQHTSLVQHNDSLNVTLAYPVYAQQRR

PI3K [5] = molecular target: T4, PI3K; test: DiscoverX KINOMEscan competition binding assay; design: purchased DiscoverX (KINOMEscan service); host or cells: E. coli BL21-derived host (T7 phage) or HEK-293; conditions: compound 10 µM; lower values = higher affinity; below 35% = significant binding
Experimental: (§5) Ligand binding experiments for the molecules selected from Profiles 1 and 2 towards nine kinases (EGFR, ErbB2, LCK, CDK2, BRAF, MET, p38α, PI3K and VEGFR2) and for molecules selected from Profiles 3 and 4 towards four kinases (EGFR, ErbB2, BRAF and VEGFR2) were carried out by DiscoverX using the supplied protocol as described in the Supplementary Materials. Briefly, ligand affinity was measured by competition with a resin-bound standard ligand and washed-off kinase concentration was determined via qPCR.
(§6) Summarizing, binding of a compound to a kinase was tested in comparison to a control compound (see Table S2). […]
(§7) 1.1. DiscoverX kinase assay
(§8) For most assays, kinase-tagged T7 phage strains were grown in parallel in 24-well blocks in an E.coli host derived from the BL21 strain. E.coli were grown to log-phase and infected with T7 phage from a frozen stock (multiplicity of infection = 0.4) and incubated with shaking at 32°C until lysis (90-150 minutes). The lysates were centrifuged (6,000 x g) and ﬁltered (0.2µm) to remove cell debris.
(§9) The remaining kinases were produced in HEK-293 cells and subsequently tagged with DNA for qPCR detection. Streptavidin-coated magnetic beads were treated with biotinylated small molecule ligands for 30 minutes at room temperature to generate afﬁnity resins for the kinases. The liganded beads were blocked with excess biotin and washed with blocking buffer (SeaBlock [Pierce], 1% BSA, 0.05% Tween 20, 1 mM DTT) to remove unbound ligands and to reduce non-speciﬁc phage binding. Binding reactions were assembled by combining kinases, liganded afﬁnity beads, and test compounds in 1x binding buffer (20% SeaBlock, 0.17x PBS, 0.05% Tween 20, 6 mM DTT). Test compounds were prepared as 40x stocks in 100% DMSO and directly diluted into the assay. All reactions were performed in polypropylene 384-well plates in a ﬁnal volume of 0.02 ml. The assay plates were incubated at room temperature with shaking for 1 hour and the afﬁnity beads were washed with wash buffer (1x PBS, 0.05% Tween 20). The beads were then re-suspended in elution buffer (1x PBS, 0.05% Tween 20, 0.5 µM non-biotinylated afﬁnity ligand) and incubated at room temperature with shaking for 30 minutes. The kinase concentration in the eluates was measured by qPCR. […]
(§10) Table S2. Experimental % control values from the DiscoverX kinase assay. Compounds were tested against the nine kinases EGFR, ErbB2, LCK, CDK2, BRAF, MET, p38α, PI3K and VEGFR2, unless otherwise stated. Binding of kinase and compound were tested at a compound concentration of 10 µM and in comparison to a control compound. Lower values indicate a higher afﬁnity of the compound to the protein and values below 35% indicate signiﬁcant binding according to information of the CRO. […]
(§11) a Compounds were only tested against four kinases (EGFR, ErbB2, BRAF and VEGFR2). b Compound was selected independently from two docking proﬁles and tested separately during
Target sequence in this assay (P42336 whole entry): as the sequence (P42336 whole entry) above

MET = molecular target: T5, MET (Homo sapiens, UniProt P08581); test: DiscoverX KINOMEscan competition binding assay; conditions: compound 10 µM; lower values = higher affinity; below 35% = significant binding
T5 construct: purchased DiscoverX (KINOMEscan service); host or cells: E. coli BL21-derived host (T7 phage) or HEK-293
Experimental: as §5, §6, §7, §8, §9, §10, §11

LCK = molecular target: T6, LCK (Homo sapiens, UniProt P06239); test: DiscoverX KINOMEscan competition binding assay; conditions: compound 10 µM; lower values = higher affinity; below 35% = significant binding
T6 construct: purchased DiscoverX (KINOMEscan service); host or cells: E. coli BL21-derived host (T7 phage) or HEK-293
Experimental: as §5, §6, §7, §8, §9, §10, §11

ErbB2 [6] = molecular target: T1, ErbB2; test: DiscoverX KINOMEscan competition binding assay; conditions: compound 10 µM; lower values = higher affinity; below 35% = significant binding
Experimental: as §5, §6, §7, §8, §9, §10, §11

BRAF [7] = molecular target: T2, BRAF; test: DiscoverX KINOMEscan competition binding assay; conditions: compound 10 µM; lower values = higher affinity; below 35% = significant binding
Experimental: as §5, §6, §7, §8, §9, §10, §11

EGFR [8] = molecular target: T3, EGFR; test: DiscoverX KINOMEscan competition binding assay; conditions: compound 10 µM; lower values = higher affinity; below 35% = significant binding
Experimental: as §5, §6, §7, §8, §9, §10, §11

p38α = molecular target: T7, p38α (Homo sapiens, UniProt Q16539); test: DiscoverX KINOMEscan competition binding assay; conditions: compound 10 µM; lower values = higher affinity; below 35% = significant binding
T7 construct: purchased DiscoverX (KINOMEscan service); host or cells: E. coli BL21-derived host (T7 phage) or HEK-293
Experimental: as §5, §6, §7, §8, §9, §10, §11

VEGFR2 = molecular target: T8, VEGFR2 (Homo sapiens, UniProt P35968); test: DiscoverX KINOMEscan competition binding assay; conditions: compound 10 µM; lower values = higher affinity; below 35% = significant binding
T8 construct: purchased DiscoverX (KINOMEscan service); host or cells: E. coli BL21-derived host (T7 phage) or HEK-293
Experimental: as §5, §6, §7, §8, §9, §10, §11

CDK2 = molecular target: T9, CDK2 (Homo sapiens, UniProt P24941); test: DiscoverX KINOMEscan competition binding assay; conditions: compound 10 µM; lower values = higher affinity; below 35% = significant binding
T9 construct: purchased DiscoverX (KINOMEscan service); host or cells: E. coli BL21-derived host (T7 phage) or HEK-293
Experimental: as §5, §6, §7, §8, §9, §10, §11

T7 sequence (Q16539 whole entry): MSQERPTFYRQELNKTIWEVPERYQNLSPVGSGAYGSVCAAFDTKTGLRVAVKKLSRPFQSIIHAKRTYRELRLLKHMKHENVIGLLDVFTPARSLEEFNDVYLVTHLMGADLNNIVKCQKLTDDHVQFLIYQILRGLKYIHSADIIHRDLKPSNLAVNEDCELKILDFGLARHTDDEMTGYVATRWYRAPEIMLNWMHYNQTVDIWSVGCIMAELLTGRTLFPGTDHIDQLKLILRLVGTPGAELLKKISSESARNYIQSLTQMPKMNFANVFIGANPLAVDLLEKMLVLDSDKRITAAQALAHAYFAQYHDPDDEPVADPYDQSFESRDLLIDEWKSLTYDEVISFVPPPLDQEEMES
T1 sequence (P04626 23-1255): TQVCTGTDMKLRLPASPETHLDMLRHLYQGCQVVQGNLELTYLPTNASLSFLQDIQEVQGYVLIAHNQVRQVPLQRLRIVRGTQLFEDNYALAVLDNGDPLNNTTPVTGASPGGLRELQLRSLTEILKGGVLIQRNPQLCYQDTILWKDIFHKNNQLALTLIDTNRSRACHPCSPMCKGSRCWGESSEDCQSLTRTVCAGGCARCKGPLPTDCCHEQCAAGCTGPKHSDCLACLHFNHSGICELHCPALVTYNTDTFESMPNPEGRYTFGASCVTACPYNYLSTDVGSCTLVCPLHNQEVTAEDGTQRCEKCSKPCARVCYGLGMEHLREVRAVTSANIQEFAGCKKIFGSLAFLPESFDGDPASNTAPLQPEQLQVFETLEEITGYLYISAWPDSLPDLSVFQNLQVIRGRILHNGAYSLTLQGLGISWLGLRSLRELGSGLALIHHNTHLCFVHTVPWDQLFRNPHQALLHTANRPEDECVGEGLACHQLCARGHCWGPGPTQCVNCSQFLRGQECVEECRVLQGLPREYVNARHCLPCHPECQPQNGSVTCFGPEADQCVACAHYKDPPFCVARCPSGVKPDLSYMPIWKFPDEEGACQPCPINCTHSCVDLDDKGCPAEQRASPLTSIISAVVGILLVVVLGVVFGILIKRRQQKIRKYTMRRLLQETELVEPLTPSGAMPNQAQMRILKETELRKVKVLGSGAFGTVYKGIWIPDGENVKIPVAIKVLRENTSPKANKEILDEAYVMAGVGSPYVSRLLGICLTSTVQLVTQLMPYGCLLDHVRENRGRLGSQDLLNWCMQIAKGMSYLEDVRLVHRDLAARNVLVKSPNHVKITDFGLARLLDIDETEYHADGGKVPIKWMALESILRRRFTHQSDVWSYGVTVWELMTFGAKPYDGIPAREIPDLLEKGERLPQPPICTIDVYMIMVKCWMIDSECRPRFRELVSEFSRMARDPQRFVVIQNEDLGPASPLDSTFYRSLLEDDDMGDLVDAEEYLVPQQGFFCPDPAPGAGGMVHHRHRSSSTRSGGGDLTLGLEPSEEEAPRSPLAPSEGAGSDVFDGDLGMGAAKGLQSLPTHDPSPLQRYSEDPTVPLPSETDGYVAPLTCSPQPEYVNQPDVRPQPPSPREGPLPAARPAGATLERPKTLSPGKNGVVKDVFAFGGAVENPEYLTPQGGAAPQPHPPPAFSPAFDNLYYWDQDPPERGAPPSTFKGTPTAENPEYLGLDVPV
T6 sequence (P06239 whole entry): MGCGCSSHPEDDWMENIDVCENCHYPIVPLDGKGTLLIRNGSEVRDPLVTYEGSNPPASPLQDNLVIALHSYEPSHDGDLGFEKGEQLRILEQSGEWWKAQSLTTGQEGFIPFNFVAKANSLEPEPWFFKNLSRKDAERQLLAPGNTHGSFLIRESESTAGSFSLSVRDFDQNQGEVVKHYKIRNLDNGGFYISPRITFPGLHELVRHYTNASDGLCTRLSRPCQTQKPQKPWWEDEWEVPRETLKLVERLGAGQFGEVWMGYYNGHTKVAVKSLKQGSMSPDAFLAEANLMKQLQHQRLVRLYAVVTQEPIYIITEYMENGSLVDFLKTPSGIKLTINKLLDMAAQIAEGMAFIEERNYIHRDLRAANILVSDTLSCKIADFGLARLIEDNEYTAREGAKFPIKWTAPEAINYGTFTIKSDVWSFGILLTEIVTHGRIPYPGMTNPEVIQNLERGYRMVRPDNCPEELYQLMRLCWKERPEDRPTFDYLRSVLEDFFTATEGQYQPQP
T2 sequence (P15056 whole entry): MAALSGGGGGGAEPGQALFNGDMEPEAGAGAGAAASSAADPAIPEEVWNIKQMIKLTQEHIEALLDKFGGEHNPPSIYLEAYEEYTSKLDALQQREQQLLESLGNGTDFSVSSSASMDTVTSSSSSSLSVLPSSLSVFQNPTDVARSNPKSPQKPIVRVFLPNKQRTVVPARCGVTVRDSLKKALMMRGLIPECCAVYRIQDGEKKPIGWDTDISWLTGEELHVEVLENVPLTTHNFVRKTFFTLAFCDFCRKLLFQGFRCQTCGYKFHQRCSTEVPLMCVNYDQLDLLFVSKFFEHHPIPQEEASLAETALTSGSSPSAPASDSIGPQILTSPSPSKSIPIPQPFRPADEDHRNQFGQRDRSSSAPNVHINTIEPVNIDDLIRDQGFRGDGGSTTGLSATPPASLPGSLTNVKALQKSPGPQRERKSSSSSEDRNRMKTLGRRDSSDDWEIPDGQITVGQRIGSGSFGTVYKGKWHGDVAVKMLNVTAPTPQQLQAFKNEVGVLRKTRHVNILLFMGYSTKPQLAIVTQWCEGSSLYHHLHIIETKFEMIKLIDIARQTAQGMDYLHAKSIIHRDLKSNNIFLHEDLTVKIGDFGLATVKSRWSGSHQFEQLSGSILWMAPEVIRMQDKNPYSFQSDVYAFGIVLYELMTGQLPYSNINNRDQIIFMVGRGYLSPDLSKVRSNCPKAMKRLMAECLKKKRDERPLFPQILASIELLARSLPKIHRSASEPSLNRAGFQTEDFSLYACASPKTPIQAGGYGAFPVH

| SMILES | % inhibition of control activity, ErbB2 (Eurofins) (ErbB2 [1]) | % inhibition of control activity, BRAF (Eurofins) (BRAF [2]) | % inhibition of control activity, EGFR (Eurofins) (EGFR [3]) | % inhibition of control activity, PI3K (Eurofins) (PI3K [4]) | % control, PI3K (DiscoverX) (PI3K [5]) [% control] | % control, MET (DiscoverX) (MET) [% control] | % control, LCK (DiscoverX) (LCK) [% control] | % control, ErbB2 (DiscoverX) (ErbB2 [6]) [% control] | % control, BRAF (DiscoverX) (BRAF [7]) [% control] | % control, EGFR (DiscoverX) (EGFR [8]) [% control] | % control, p38α (DiscoverX) (p38α) [% control] | % control, VEGFR2 (DiscoverX) (VEGFR2) [% control] | % control, CDK2 (DiscoverX) (CDK2) [% control] |
| --- | --- | --- | --- | --- | --- | --- | --- | --- | --- | --- | --- | --- | --- |
| O=C(Oc1ccc2c3c(c(=O)oc2c1)CCC3)c1cccc(Cl)c1 [DS76514] | -0.6 (1.0) % inhibition | -33.6 (18.1) % inhibition | 3.2 (10.7) % inhibition | 17.4 (0.4) % inhibition | 100 | 90 | 100 | 96 | 89 | 87 | 97 | 100 | 100 |
| CC(C)n1ccc(=O)nc1SC1CCN(c2ccccc2F)C1=O (stereo not shown) [DS99367] | -3.3 (0.5) % inhibition | -19.6 (11.8) % inhibition | 17.3 (0.1) % inhibition | 1.4 (0.1) % inhibition | 100 | 87 | 100 | 100 | 100 | 93 | 91 | 100 | 100 |
| Cc1ccc(/C=C2\N=C(c3cccc(S(=O)(=O)N(C)C)c3)OC2=O)s1 [DS74871] | -8.3 (1.2) % inhibition | -44.9 (24.1) % inhibition | 23.3 (4.2) % inhibition | 22.1 (2.3) % inhibition | 100 | 95 | 90 | 100 | 100 | 100 | 81 | 100 | 100 |
| O=C(Cn1cnc2c(cnn2CCO)c1=O)NCc1ccccc1 [DS05168] | 2.8 (1.6) % inhibition | -12.4 (10.9) % inhibition | 11.1 (1.8) % inhibition | -1 (1.6) % inhibition | 100 | 94 | 95 | 100 | 98 | 100 | 100 | 100 | 99 |
